Residues, ends and D or L forms follow the SMILES beside them.
Target: T1, human sweet taste receptor (hT1R2+hT1R3) (Homo sapiens, UniProt Q7RTX0+Q8TE23)
T1 sequence (Q8TE23 20-839): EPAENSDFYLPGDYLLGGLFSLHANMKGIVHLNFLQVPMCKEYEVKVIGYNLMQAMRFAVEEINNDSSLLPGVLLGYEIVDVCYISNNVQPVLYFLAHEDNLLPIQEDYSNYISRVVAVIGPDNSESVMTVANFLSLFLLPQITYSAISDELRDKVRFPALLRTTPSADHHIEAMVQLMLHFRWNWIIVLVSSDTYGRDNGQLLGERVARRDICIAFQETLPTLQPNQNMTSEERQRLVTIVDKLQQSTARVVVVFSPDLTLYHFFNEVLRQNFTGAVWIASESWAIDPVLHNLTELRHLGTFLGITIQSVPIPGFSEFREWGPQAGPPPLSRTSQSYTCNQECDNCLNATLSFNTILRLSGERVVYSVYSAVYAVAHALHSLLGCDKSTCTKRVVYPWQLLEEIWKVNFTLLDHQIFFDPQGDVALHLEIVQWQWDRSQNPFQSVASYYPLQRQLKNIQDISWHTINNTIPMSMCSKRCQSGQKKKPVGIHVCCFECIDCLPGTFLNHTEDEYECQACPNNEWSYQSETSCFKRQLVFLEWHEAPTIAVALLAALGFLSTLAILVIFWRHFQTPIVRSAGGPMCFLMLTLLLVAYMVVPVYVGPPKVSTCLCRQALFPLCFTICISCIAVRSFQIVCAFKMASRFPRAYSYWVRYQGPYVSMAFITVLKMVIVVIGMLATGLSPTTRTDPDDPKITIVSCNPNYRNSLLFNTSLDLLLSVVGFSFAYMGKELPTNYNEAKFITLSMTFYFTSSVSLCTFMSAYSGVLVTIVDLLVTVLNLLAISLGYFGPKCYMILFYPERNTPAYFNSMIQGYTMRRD
T1 sequence (Q7RTX0 21-852): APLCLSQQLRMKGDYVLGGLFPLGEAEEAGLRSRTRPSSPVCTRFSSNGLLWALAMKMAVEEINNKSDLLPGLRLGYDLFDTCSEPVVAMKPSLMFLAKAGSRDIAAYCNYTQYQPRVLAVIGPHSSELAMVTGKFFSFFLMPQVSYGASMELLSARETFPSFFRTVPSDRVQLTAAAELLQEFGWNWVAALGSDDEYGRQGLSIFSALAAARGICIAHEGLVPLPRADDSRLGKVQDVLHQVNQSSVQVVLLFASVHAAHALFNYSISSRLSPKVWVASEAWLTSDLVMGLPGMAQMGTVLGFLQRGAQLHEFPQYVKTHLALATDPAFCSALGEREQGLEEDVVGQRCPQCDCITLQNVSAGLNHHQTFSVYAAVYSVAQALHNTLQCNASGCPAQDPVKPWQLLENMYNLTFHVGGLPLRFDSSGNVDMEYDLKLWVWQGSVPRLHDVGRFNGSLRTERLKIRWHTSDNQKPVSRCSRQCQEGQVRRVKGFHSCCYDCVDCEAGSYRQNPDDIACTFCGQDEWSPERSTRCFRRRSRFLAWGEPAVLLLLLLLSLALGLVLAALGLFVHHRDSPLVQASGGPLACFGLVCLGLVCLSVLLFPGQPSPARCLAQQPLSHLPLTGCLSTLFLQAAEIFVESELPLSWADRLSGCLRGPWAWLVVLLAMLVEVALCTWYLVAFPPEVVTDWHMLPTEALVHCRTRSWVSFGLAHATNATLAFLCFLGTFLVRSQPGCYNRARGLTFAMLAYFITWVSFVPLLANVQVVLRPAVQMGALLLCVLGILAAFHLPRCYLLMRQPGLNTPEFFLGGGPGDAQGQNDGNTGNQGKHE
Assay: Automated fluorescent calcium imaging (Fluo-4 AM, FlexStation 3) of cultured cell strain (A)
Type: cell-based
Set-up: The sweet taste receptor subunits T1R2 and T1R3 include an entire part of each subunit
Conditions: Average ± S.E., n = 2
Procedure: Automated fluorescent imaging using FlexStation 3 (Molecular Devices) can be performed, for example, according to the following procedure.
First, cells are suspended in a low glucose ([…]) DMEM medium from which hygromycin B has been removed, and each 70 to 80 thousands of cells are seeded on each well of a 96-well plate (Corning, CellBIND Surface).
Then, after cultured at 37° C. for 24 hours, a medium is removed and replaced with a suitable amount of a HEPES (2-[4-(2-hydroxyethyl)-1-piperazinyl]ethanesulfonic acid) buffer, and a HEPES buffer containing a fluorescent calcium indicator (Fluo-4 AM attached to Molecular Devices, FLIPR Ca 4 Assay Kit) is further added. In order to facilitate transfer into cells, a fat-soluble acetoxymethyl group has been introduced into the fluorescent indicator Fluo-4 (excitation wavelength: 495 nm, fluorescent wavelength: 518 nm), and when it is added to a medium, it is easily taken into cells, and is hydrolyzed with an esterase in cells. Hydrolyzed Fluo-4 becomes difficult to be permeated through a cell membrane, and is diffused into cells to form a complex with calcium, emitting intense fluorescence. In a 96-well plate for fluorescent observation, there are a plastic bottom and a film bottom. Since a plate of the plastic bottom is satisfactory in adherability and growth of cells, it is used at a simultaneous assay using a multiplate reader for observing an entire well. However, since a plate of this plastic bottom is bad in transmission property of a UV wavelength, and inhibits transmission of excited light of Fura-2, Fluo-4 is used.
Then, after incubated at 27 to 37° C. for 30 to 60 minutes, by adding thereto a sweet taste substance at a particular concentration or a solution of a sweet taste substance and a substance to be tested, taste stimulation is performed at 27 to 37° C.
A physiological response of the cultured cell strain (A) to sucrose stimulation was analyzed by automated fluorescent imaging.
The cultured cell strain (A) prepared in Example 4 was trypsinized, and suspended in the DMEM medium, a cell density was measured, and each about 80 thousand cells were seeded on each well of a 96-well plate (Corning, CellBIND Surface).
After cultured at 37° C. for 24 hours, the medium was removed and replaced with 50 μl of a HEPES buffer, and 50 μl of a HEPES buffer containing a fluorescent calcium indicator (Fluo-4 AM attached to Molecular Devices, FLIPR Ca 4 Assay Kit) was further added. Then, this was incubated at 27° C. for 45 minutes to prepare cells to be subjected to automated fluorescent imaging.
Then, to the cells was added a HEPES buffer containing sucrose, so that a final concentration of sucrose became a concentration described in Table 1, and sucrose stimulation was performed at 27° C.
The vertical axis of FIG. 15 is a maximum of change (AF) in a fluorescent intensity between immediately after stimulation and 100 seconds after stimulation, that is, a response intensity of cells, and the horizontal axis indicates a sucrose concentration (mM) expressed by logarithm.
A physiological response of the cultured cell strain (A) to D-phenylalanine stimulation was analyzed by automated fluorescent imaging.

Change amount of fluorescent intensity (ΔF) (aspartame 0.04 mM): 3.0 ± 0.1
Change amount of fluorescent intensity (ΔF) (aspartame 0.16 mM): 4.4 ± 1.1
Change amount of fluorescent intensity (ΔF) (aspartame 0.31 mM): 5.2 ± 0.4
Change amount of fluorescent intensity (ΔF) (aspartame 0.63 mM): 12.3 ± 1.7
Change amount of fluorescent intensity (ΔF) (aspartame 1.25 mM): 27.9 ± 1.9
Change amount of fluorescent intensity (ΔF) (aspartame 2.50 mM): 31.2 ± 0.7
Structure (SMILES): COC(=O)[C@H](Cc1ccccc1)NC(=O)[C@@H](N)CC(=O)O [aspartame] (H-Asp-Phe-OMe)

— patent publication US8658383B2, “Sweet taste receptor-expressing construct, cell body expressing the same, and utilization thereof” (T. Hasegawa Co., Ltd., priority 2009, dated 2014)
